Laboratory results as given in the NIST ThermoML archive (doi:10.1016/j.jct.2016.03.035).
Several values for one entry are separate records, joined by “and”; a condition that tells them apart may be missing. Equal values may be shown once.

Experiment: xn = mol fraction of the nth substance listed
Settings: Gas, Buoyancy - hydrostatic balance with magnetic suspension - two sinkers

C [methane] + CCC
Settings | mass density
273.15 K, 931.05 kPa, x1 = 0.5069 | 13.4744 kg/m3
273.15 K, 971.34 kPa, x1 = 0.5069 | 14.1245 kg/m3
273.15 K, 971.91 kPa, x1 = 0.5069 | 14.1339 kg/m3
273.15 K, 972.48 kPa, x1 = 0.5069 | 14.1428 kg/m3
273.15 K, 980.94 kPa, x1 = 0.5069 | 14.2794 kg/m3
273.15 K, 986.21 kPa, x1 = 0.5069 | 14.3656 kg/m3
273.15 K, 991.45 kPa, x1 = 0.5069 | 14.4504 kg/m3
273.15 K, 1009.5 kPa, x1 = 0.5069 | 14.7466 kg/m3 and 14.7469 kg/m3
273.15 K, 1009.6 kPa, x1 = 0.5069 | 14.7472 kg/m3
273.15 K, 1015.4 kPa, x1 = 0.5069 | 14.8425 kg/m3
273.15 K, 1015.5 kPa, x1 = 0.5069 | 14.8423 kg/m3
273.15 K, 1299.2 kPa, x1 = 0.7498 | 14.1894 kg/m3
273.15 K, 1700.4 kPa, x1 = 0.7498 | 19.0431 kg/m3 and 19.0434 kg/m3
273.15 K, 1999 kPa, x1 = 0.7498 | 22.8336 kg/m3
273.15 K, 1999.7 kPa, x1 = 0.7498 | 22.843 kg/m3
273.15 K, 2000.5 kPa, x1 = 0.7498 | 22.8522 kg/m3
273.15 K, 2295.4 kPa, x1 = 0.7498 | 26.7552 kg/m3
273.15 K, 2297.1 kPa, x1 = 0.7498 | 26.7787 kg/m3
273.15 K, 2297.8 kPa, x1 = 0.7498 | 26.7892 kg/m3
273.15 K, 2309.7 kPa, x1 = 0.7498 | 26.9494 kg/m3
273.15 K, 2310.5 kPa, x1 = 0.7498 | 26.9603 kg/m3
273.15 K, 2311.3 kPa, x1 = 0.7498 | 26.971 kg/m3
273.16 K, 500.9 kPa, x1 = 0.7498 | 5.2231 kg/m3
273.16 K, 1299.2 kPa, x1 = 0.7498 | 14.1894 kg/m3
274.02 K, 674.01 kPa, x1 = 0.2658 | 12.0842 kg/m3
274.13 K, 674.35 kPa, x1 = 0.2658 | 12.084 kg/m3
274.25 K, 674.71 kPa, x1 = 0.2658 | 12.0838 kg/m3
274.37 K, 675.08 kPa, x1 = 0.2658 | 12.0836 kg/m3
274.5 K, 675.47 kPa, x1 = 0.2658 | 12.0837 kg/m3
274.64 K, 675.87 kPa, x1 = 0.2658 | 12.0831 kg/m3
274.78 K, 676.29 kPa, x1 = 0.2658 | 12.0823 kg/m3
274.93 K, 676.74 kPa, x1 = 0.2658 | 12.0821 kg/m3
275.09 K, 677.21 kPa, x1 = 0.2658 | 12.0819 kg/m3
275.26 K, 677.71 kPa, x1 = 0.2658 | 12.0812 kg/m3
275.43 K, 678.23 kPa, x1 = 0.2658 | 12.0807 kg/m3
275.61 K, 678.78 kPa, x1 = 0.2658 | 12.0804 kg/m3
275.81 K, 679.35 kPa, x1 = 0.2658 | 12.0795 kg/m3
276.01 K, 679.96 kPa, x1 = 0.2658 | 12.0795 kg/m3
276.22 K, 680.58 kPa, x1 = 0.2658 | 12.0783 kg/m3
276.44 K, 681.24 kPa, x1 = 0.2658 | 12.0781 kg/m3
276.67 K, 681.92 kPa, x1 = 0.2658 | 12.0776 kg/m3
276.89 K, 682.58 kPa, x1 = 0.2658 | 12.0781 kg/m3
277.08 K, 683.2 kPa, x1 = 0.2658 | 12.0796 kg/m3
277.2 K, 683.7 kPa, x1 = 0.2658 | 12.0865 kg/m3
293.14 K, 149.9 kPa, x1 = 0.2658 | 2.2917 kg/m3 and 2.2913 kg/m3 and 2.2914 kg/m3
293.14 K, 205.57 kPa, x1 = 0.5069 | 2.5567 kg/m3 and 2.5566 kg/m3
293.14 K, 258.04 kPa, x1 = 0.2658 | 3.9962 kg/m3
293.14 K, 355.08 kPa, x1 = 0.2658 | 5.5657 kg/m3
293.14 K, 393.87 kPa, x1 = 0.5069 | 4.9714 kg/m3
293.14 K, 469.3 kPa, x1 = 0.2658 | 7.4654 kg/m3 and 7.465 kg/m3
293.14 K, 568.75 kPa, x1 = 0.2658 | 9.168 kg/m3 and 9.1681 kg/m3
293.14 K, 613.82 kPa, x1 = 0.5069 | 7.8848 kg/m3
293.14 K, 655.64 kPa, x1 = 0.2658 | 10.6962 kg/m3
293.14 K, 955.23 kPa, x1 = 0.2658 | 16.2976 kg/m3
293.14 K, 1006.2 kPa, x1 = 0.5069 | 13.3635 kg/m3 and 13.3634 kg/m3
293.14 K, 1056.3 kPa, x1 = 0.2658 | 18.3228 kg/m3 and 18.3227 kg/m3 and 18.3219 kg/m3
293.14 K, 1105.6 kPa, x1 = 0.2658 | 19.3403 kg/m3
293.14 K, 1105.7 kPa, x1 = 0.2658 | 19.3405 kg/m3
293.14 K, 1209.2 kPa, x1 = 0.5069 | 16.3578 kg/m3
293.14 K, 1399.6 kPa, x1 = 0.5069 | 19.2779 kg/m3
293.14 K, 1807.2 kPa, x1 = 0.5069 | 25.9505 kg/m3 and 25.9502 kg/m3
293.15 K, 205.57 kPa, x1 = 0.5069 | 2.5568 kg/m3
293.15 K, 258.04 kPa, x1 = 0.2658 | 3.9961 kg/m3 and 3.9961 kg/m3
293.15 K, 355.08 kPa, x1 = 0.2658 | 5.5657 kg/m3 and 5.5657 kg/m3
293.15 K, 393.88 kPa, x1 = 0.5069 | 4.9713 kg/m3 and 4.9715 kg/m3
293.15 K, 469.3 kPa, x1 = 0.2658 | 7.4651 kg/m3
293.15 K, 568.76 kPa, x1 = 0.2658 | 9.1679 kg/m3
293.15 K, 613.83 kPa, x1 = 0.5069 | 7.885 kg/m3 and 7.8849 kg/m3
293.15 K, 655.65 kPa, x1 = 0.2658 | 10.6965 kg/m3 and 10.6961 kg/m3
293.15 K, 803.71 kPa, x1 = 0.5069 | 10.4888 kg/m3
293.15 K, 803.74 kPa, x1 = 0.5069 | 10.4889 kg/m3
293.15 K, 803.76 kPa, x1 = 0.5069 | 10.4892 kg/m3
293.15 K, 857.4 kPa, x1 = 0.2658 | 14.4071 kg/m3 and 14.4072 kg/m3
293.15 K, 955.25 kPa, x1 = 0.2658 | 16.2978 kg/m3 and 16.2977 kg/m3
293.15 K, 1006.2 kPa, x1 = 0.5069 | 13.3633 kg/m3
293.15 K, 1105.7 kPa, x1 = 0.2658 | 19.3404 kg/m3
293.15 K, 1209.4 kPa, x1 = 0.5069 | 16.361 kg/m3
293.15 K, 1209.7 kPa, x1 = 0.5069 | 16.3642 kg/m3
293.15 K, 1399.6 kPa, x1 = 0.5069 | 19.2776 kg/m3
293.15 K, 1605.7 kPa, x1 = 0.5069 | 22.5751 kg/m3
293.15 K, 1605.8 kPa, x1 = 0.5069 | 22.5767 kg/m3 and 22.5758 kg/m3
293.15 K, 1807.2 kPa, x1 = 0.5069 | 25.9502 kg/m3
294.01 K, 1223.6 kPa, x1 = 0.2658 | 21.7481 kg/m3
294.04 K, 1223.7 kPa, x1 = 0.2658 | 21.7478 kg/m3
294.06 K, 1223.9 kPa, x1 = 0.2658 | 21.7477 kg/m3
294.09 K, 1224 kPa, x1 = 0.2658 | 21.7474 kg/m3
294.12 K, 1224.2 kPa, x1 = 0.2658 | 21.747 kg/m3
294.15 K, 1224.3 kPa, x1 = 0.2658 | 21.7472 kg/m3
294.18 K, 1224.5 kPa, x1 = 0.2658 | 21.7471 kg/m3
294.21 K, 1224.7 kPa, x1 = 0.2658 | 21.7472 kg/m3
294.25 K, 1224.9 kPa, x1 = 0.2658 | 21.7472 kg/m3
294.28 K, 1225.2 kPa, x1 = 0.2658 | 21.747 kg/m3
294.32 K, 1225.4 kPa, x1 = 0.2658 | 21.747 kg/m3
294.37 K, 1225.6 kPa, x1 = 0.2658 | 21.747 kg/m3
294.41 K, 1225.9 kPa, x1 = 0.2658 | 21.7466 kg/m3
294.46 K, 1226.2 kPa, x1 = 0.2658 | 21.7464 kg/m3
294.5 K, 1226.4 kPa, x1 = 0.2658 | 21.7465 kg/m3
294.56 K, 1226.7 kPa, x1 = 0.2658 | 21.7464 kg/m3
294.61 K, 1227 kPa, x1 = 0.2658 | 21.746 kg/m3
294.67 K, 1227.4 kPa, x1 = 0.2658 | 21.7447 kg/m3
294.74 K, 1227.7 kPa, x1 = 0.2658 | 21.744 kg/m3
294.81 K, 1228.1 kPa, x1 = 0.2658 | 21.7437 kg/m3
294.88 K, 1228.5 kPa, x1 = 0.2658 | 21.7435 kg/m3
294.95 K, 1228.9 kPa, x1 = 0.2658 | 21.743 kg/m3
295.11 K, 1229.9 kPa, x1 = 0.2658 | 21.7426 kg/m3
295.2 K, 1230.4 kPa, x1 = 0.2658 | 21.7417 kg/m3
295.29 K, 1230.9 kPa, x1 = 0.2658 | 21.741 kg/m3
295.39 K, 1231.4 kPa, x1 = 0.2658 | 21.7403 kg/m3
295.5 K, 1232 kPa, x1 = 0.2658 | 21.7395 kg/m3
295.6 K, 1232.6 kPa, x1 = 0.2658 | 21.7391 kg/m3
295.72 K, 1233.3 kPa, x1 = 0.2658 | 21.738 kg/m3
295.84 K, 1234 kPa, x1 = 0.2658 | 21.7373 kg/m3
295.97 K, 1234.7 kPa, x1 = 0.2658 | 21.7364 kg/m3
296.1 K, 1235.4 kPa, x1 = 0.2658 | 21.7356 kg/m3
296.24 K, 1236.2 kPa, x1 = 0.2658 | 21.7346 kg/m3
296.39 K, 1237 kPa, x1 = 0.2658 | 21.7335 kg/m3
296.55 K, 1237.9 kPa, x1 = 0.2658 | 21.7324 kg/m3
296.71 K, 1238.8 kPa, x1 = 0.2658 | 21.731 kg/m3
296.88 K, 1239.8 kPa, x1 = 0.2658 | 21.7302 kg/m3
297.07 K, 1240.8 kPa, x1 = 0.2658 | 21.7284 kg/m3
297.26 K, 1241.9 kPa, x1 = 0.2658 | 21.7273 kg/m3
297.45 K, 1243 kPa, x1 = 0.2658 | 21.7257 kg/m3
297.66 K, 1244.1 kPa, x1 = 0.2658 | 21.7254 kg/m3
297.86 K, 1245.3 kPa, x1 = 0.2658 | 21.7253 kg/m3
298.04 K, 1246.4 kPa, x1 = 0.2658 | 21.7265 kg/m3
298.15 K, 1247.3 kPa, x1 = 0.2658 | 21.7319 kg/m3
